From US20250376472A1, “3-(PHENYLSULFONYL)-[1,2,3]TRIAZOLO[1,5A]QUINAZOLIN-5(4H)-ONE DERIVATIVES” (priority 2022, published 2025)

Target: T1, AgrA (Staphylococcus aureus, UniProt P0A0I7)
T1 construct: endogenous in cells; host or cells: S. aureus USA300 strain UAMS-1625 carrying a P3-lacZ reporter plasmid
Test: cell-based
Design: species or system S. aureus
Settings: for Ratio IC50 (in presence of HSA)/IC50 (in absence of HSA): 40 mg/mL HSA versus no HSA
Protocol: The inventive compounds are 3-(phenylsulfonyl)-[1,2,3]triazolo[1,5a]quinazolin-5(4h)-one derivatives comprising an N-bound piperazine or homopiperazine at the 8-position of the [1,2,3]triazolo[1,5a]quinazolin-5(4h)-one core, further substituted (on the second nitrogen atom) by an (optionally substituted) acetyl or propionyl amide group. […] Specifically, the reporter gene lacZ (which encodes the protein product β-galactosidase) was transfected into S. aureus with a plasmid under control of the P3 promoter. The compounds were serially diluted in lysogeny broth (LB), and incubated with S. aureus. Following incubation, the S. aureus cells were lysed and treated with 4-methylumbelliferyl-galactopyranoside (MUG). The β-galactosidase produced by expression of lacZ cleaved the MUG into galactopyranose and 4-methylumbelliferone, which was measured by fluorescence.
The resulting reporter strain was used to measure AgrA inhibitory activity as follows. From an overnight culture plate, cells were resuspended in 0.9% (w/v) saline solution and bacterial inoculum was prepared in LB medium with 5×10^5 CFU/ml. Compounds were two-fold serially diluted in LB and 50 μL of this 10× concentrated samples were added into the 96-deep well plate. 500 μL of bacterial suspension was finally added to the compounds or DMSO control. Plates were covered and incubated with shaking at 37° C. After 18 hours incubation, 100 μL was transferred to a new clear 96-well plate and the OD600 was measured using a TECAN Infinite F200 microplate reader to control for growth inhibition. Another 100 μL was transferred to a new black 96-well plate containing 30 μL of lysis buffer (20 mM Tris/HCl, 3 mM MgCl2, 0.5% Tween 20 (v/v), 0.5% NP-40 (v/v)) and the plate was incubated with shaking at 37° C. for 60 min. 20 μL of the substrate MUG (4-Methylumbelliferyl O-D-galactopyranoside) at 0.25 mg/ml was added and the fluorescence (excitation: 360 nm, emission: 450 mu) was measured with a TECAN Infinite F200 microplate reader after 3 hours incubation at 37° C. with shaking. The IC50 was determined using GraphPad PRISM after normalization to DMSO control.

[1] = LB medium supplemented with human serum albumin 40 mg/mL
[2] = LB medium, no human serum albumin, 18 hours incubation
[3] = IC50 at 40 mg/mL HSA, LB medium supplemented with human serum albumin 40 mg/mL
[4] = IC50 without HSA, LB medium, no human serum albumin, 18 hours incubation

T1 sequence (P0A0I7 whole entry): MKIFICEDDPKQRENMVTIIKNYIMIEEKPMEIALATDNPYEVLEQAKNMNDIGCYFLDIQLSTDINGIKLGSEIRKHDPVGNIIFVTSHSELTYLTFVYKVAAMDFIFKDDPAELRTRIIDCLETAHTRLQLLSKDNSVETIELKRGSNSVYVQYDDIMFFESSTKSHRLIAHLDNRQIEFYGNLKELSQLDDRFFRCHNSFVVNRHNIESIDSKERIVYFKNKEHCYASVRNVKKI

Structure (SMILES)	Ratio IC50 (in presence of HSA)/IC50 (in absence of HSA)	IC50 at 40 mg/mL HSA [1]	IC50 without HSA [2]	IC50 [3] [µM]	IC50 [4] [µM]
Cc1ccc(S(=O)(=O)c2nnn3c2[nH]c(=O)c2ccc(N4CCN(CC(=O)N5CCCC5CO)CC4)cc23)c(C)c1 (centres unmarked) [Compound 76]	+++ (+++: ratio ≤ 25)	++ (++: 10 μg/mL < IC50 ≤ 50 μg/mL)	++ (++: 1 μg/mL < IC50 ≤ 5 μg/mL)		
Cc1ccc(S(=O)(=O)c2nnn3c2[nH]c(=O)c2ccc(N4CCCN(CC(=O)N5CCCC5)CC4)cc23)c(C)c1 [Compound 83]	+++ (+++: ratio ≤ 25)	+++ (+++: IC50 ≤ 10 μg/mL)	++ (++: 1 μg/mL < IC50 ≤ 5 μg/mL)		
Cc1ccc(S(=O)(=O)c2nnn3c2[nH]c(=O)c2ccc(N4CCCN(CC(=O)N5CCOCC5)CC4)cc23)c(C)c1 [Compound 84]	+++ (+++: ratio ≤ 25)	+++ (+++: IC50 ≤ 10 μg/mL)	++ (++: 1 μg/mL < IC50 ≤ 5 μg/mL)		
Cc1ccc(S(=O)(=O)c2nnn3c2[nH]c(=O)c2ccc(N4CCCN(CC(=O)N5CCCCC5)CC4)cc23)c(C)c1 [Compound 85]				17.3 to 86.5	1.73 to 8.65
Cc1ccc(S(=O)(=O)c2nnn3c2[nH]c(=O)c2ccc(N4CCN(CC(=O)NC5CCN(C)CC5)CC4)cc23)c(C)c1 [Compound 86]				16.9 to 84.4	1.69 to 8.44
Cc1ccc(S(=O)(=O)c2nnn3c2[nH]c(=O)c2ccc(N4CCN(CC(=O)NC5CCOCC5)CC4)cc23)c(C)c1 [Compound 87]	+++ (+++: ratio ≤ 25)	+++ (+++: IC50 ≤ 10 μg/mL)	+++ (+++: IC50 ≤ 1 μg/mL)		
Cc1ccc(S(=O)(=O)c2nnn3c2[nH]c(=O)c2ccc(N4CCN(CC(=O)NCC5CCN(C)CC5)CC4)cc23)c(C)c1 [Compound 88]				16.5 to 82.4	1.65 to 8.24
Cc1ccc(S(=O)(=O)c2nnn3c2[nH]c(=O)c2ccc(N4CCN(CC(=O)NCCN5CCN(C)CC5)CC4)cc23)c(C)c1 [Compound 89]				16.1 to 80.4	1.61 to 8.04
Cc1ccc(S(=O)(=O)c2nnn3c2[nH]c(=O)c2ccc(N4CCN(CC(=O)NCCN5CCCCC5)CC4)cc23)c(C)c1 [Compound 90]				16.5 to 82.4	1.65 to 8.24
Cc1ccc(S(=O)(=O)c2nnn3c2[nH]c(=O)c2ccc(N4CCN(CC(=O)NCCN5CCOCC5)CC4)cc23)c(C)c1 [Compound 91]				16.4 to 82.1	1.64 to 8.21
Cc1ccc(S(=O)(=O)c2nnn3c2[nH]c(=O)c2ccc(N4CCN(CC(=O)NCCCN5CCOCC5)CC4)cc23)c(C)c1 [Compound 92]				16.1 to 80.3	1.61 to 8.03
CCN1CCCC1CNC(=O)CN1CCN(c2ccc3c(=O)[nH]c4c(S(=O)(=O)c5ccc(C)cc5C)nnn4c3c2)CC1 (centres unmarked) [Compound 93]				< 16.5	1.65 to 8.24
Cc1ccc(S(=O)(=O)c2nnn3c2[nH]c(=O)c2ccc(N4CCN(CC(=O)NCCN5CCCC5)CC4)cc23)c(C)c1 [Compound 94]				16.9 to 84.4	1.69 to 8.44
Cc1ccc(S(=O)(=O)c2nnn3c2[nH]c(=O)c2ccc(N4CCN(CC(=O)NCCC5CCCN5C)CC4)cc23)c(C)c1 (centres unmarked) [Compound 95]	+++ (+++: ratio ≤ 25)	++ (++: 10 μg/mL < IC50 ≤ 50 μg/mL)	++ (++: 1 μg/mL < IC50 ≤ 5 μg/mL)		
Cc1ccc(S(=O)(=O)c2nnn3c2[nH]c(=O)c2ccc(N4CCN(CC(=O)NCC5CCCO5)CC4)cc23)c(C)c1 (centres unmarked) [Compound 96]				17.3 to 86.3	< 1.73
Cc1ccc(S(=O)(=O)c2nnn3c2[nH]c(=O)c2ccc(N4CCN(CC(=O)NCCCN5CCCC5=O)CC4)cc23)c(C)c1 [Compound 97]				16.1 to 80.5	1.61 to 8.05
Cc1ccc(S(=O)(=O)c2nnn3c2[nH]c(=O)c2ccc(N4CCCN(CC(=O)NC5CCN(C)CC5)CC4)cc23)c(C)c1 [Compound 102]	+++ (+++: ratio ≤ 25)	++ (++: 10 μg/mL < IC50 ≤ 50 μg/mL)	++ (++: 1 μg/mL < IC50 ≤ 5 μg/mL)		
Cc1ccc(S(=O)(=O)c2nnn3c2[nH]c(=O)c2ccc(N4CCCN(CC(=O)NC5CCOCC5)CC4)cc23)c(C)c1 [Compound 103]				< 16.8	1.68 to 8.42
Cc1ccc(S(=O)(=O)c2nnn3c2[nH]c(=O)c2ccc(N4CCN(CC(=O)Nc5ccccc5)CC4)cc23)c(C)c1 [Compound 104]				17.5 to 87.5	< 1.75
Cc1ccc(S(=O)(=O)c2nnn3c2[nH]c(=O)c2ccc(N4CCN(CC(=O)NCc5ccccc5)CC4)cc23)c(C)c1 [Compound 106]				17.1 to 85.4	< 1.71
Cc1ccc(S(=O)(=O)c2nnn3c2[nH]c(=O)c2ccc(N4CCN(CC(=O)NCc5cccc(O)c5)CC4)cc23)c(C)c1 [Compound 108]				16.6 to 83.1	< 1.66

Structure (SMILES)	Ratio IC50 (in presence of HSA)/IC50 (in absence of HSA)	IC50 at 40 mg/mL HSA [1]	IC50 without HSA [2]	IC50 [3] [µM]	IC50 [4] [µM]
Cc1ccc(S(=O)(=O)c2nnn3c2[nH]c(=O)c2ccc(N4CCN(CC(=O)NCCc5ccccc5)CC4)cc23)c(C)c1 [Compound 109]				16.7 to 83.4	< 1.67
Cc1ccc(S(=O)(=O)c2nnn3c2[nH]c(=O)c2ccc(N4CCN(CC(=O)NCc5cccnc5)CC4)cc23)c(C)c1 [Compound 111]				17 to 85.2	< 1.7
Cc1ccc(S(=O)(=O)c2nnn3c2[nH]c(=O)c2ccc(N4CCN(CC(=O)NCc5ccco5)CC4)cc23)c(C)c1 [Compound 113]				17.4 to 86.9	< 1.74
Cc1ccc(S(=O)(=O)c2nnn3c2[nH]c(=O)c2ccc(N4CCN(CC(=O)NCc5cocn5)CC4)cc23)c(C)c1 [Compound 114]				17.3 to 86.7	< 1.73
Cc1ccc(S(=O)(=O)c2nnn3c2[nH]c(=O)c2ccc(N4CCN(CC(=O)NCCn5cccc5)CC4)cc23)c(C)c1 [Compound 115]				17 to 84.9	< 1.7
Cc1ccc(S(=O)(=O)c2nnn3c2[nH]c(=O)c2ccc(N4CCN(CC(=O)NCCc5cccs5)CC4)cc23)c(C)c1 [Compound 116]				16.5 to 82.5	< 1.65
Cc1ccc(S(=O)(=O)c2nnn3c2[nH]c(=O)c2ccc(N4CCN(CC(=O)NCCn5ccnc5)CC4)cc23)c(C)c1 [Compound 117]				17 to 84.8	1.7 to 8.48
Cc1ccc(S(=O)(=O)c2nnn3c2[nH]c(=O)c2ccc(N4CCCN(CC(=O)Nc5ccccc5)CC4)cc23)c(C)c1 [Compound 122]				17.1 to 85.4	< 1.71
Cc1ccc(S(=O)(=O)c2nnn3c2[nH]c(=O)c2ccc(N4CCCN(CC(=O)NCc5ccccc5)CC4)cc23)c(C)c1 [Compound 123]				16.7 to 83.4	< 1.67
Cc1ccc(S(=O)(=O)c2nnn3c2[nH]c(=O)c2ccc(N4CCN(CC(=O)N5CCC6(CCCC6)C5)CC4)cc23)c(C)c1 [Compound 126]				16.6 to 82.8	< 1.66
Cc1ccc(S(=O)(=O)c2nnn3c2[nH]c(=O)c2ccc(N4CCN(CC(=O)N5CCC6(CCN(C)CC6)CC5)CC4)cc23)c(C)c1 [Compound 127]				15.5 to 77.3	< 1.55
Cc1ccc(S(=O)(=O)c2nnn3c2[nH]c(=O)c2ccc(N4CCN(CC(=O)N5CCCC6(CCN(C)CC6)C5)CC4)cc23)c(C)c1 [Compound 128]				15.5 to 77.3	1.55 to 7.73
Cc1ccc(S(=O)(=O)c2nnn3c2[nH]c(=O)c2ccc(N4CCN(CC(=O)N5CCN6CCOCC6C5)CC4)cc23)c(C)c1 (centres unmarked) [Compound 129]	+++ (+++: ratio ≤ 25)	+++ (+++: IC50 ≤ 10 μg/mL)	+++ (+++: IC50 ≤ 1 μg/mL)		
Cc1ccc(S(=O)(=O)c2nnn3c2[nH]c(=O)c2ccc(N4CCN(CC(=O)N5CCN6CCCC6C5)CC4)cc23)c(C)c1 (centres unmarked) [Compound 130]				< 16.5	< 1.65
Cc1ccc(S(=O)(=O)c2nnn3c2[nH]c(=O)c2ccc(N4CCN(CC(=O)NCCN)CC4)cc23)c(C)c1 [Compound 131]				18.6 to 92.8	1.86 to 9.28
Cc1ccc(S(=O)(=O)c2nnn3c2[nH]c(=O)c2ccc(N4CCN(CC(=O)N5CCNCC5)CC4)cc23)c(C)c1 [Compound 134]				< 17.7	1.77 to 8.85
Cc1ccc(S(=O)(=O)c2nnn3c2[nH]c(=O)c2ccc(N4CCN(CC(=O)N5CCC(N)C5)CC4)cc23)c(C)c1 (centres unmarked) [Compound 135]				17.7 to 88.5	1.77 to 8.85
Cc1ccc(S(=O)(=O)c2nnn3c2[nH]c(=O)c2ccc(N4CCN(CC(=O)NC5CCNC5)CC4)cc23)c(C)c1 (centres unmarked) [Compound 136]				17.7 to 88.5	1.77 to 8.85
Cc1ccc(S(=O)(=O)c2nnn3c2[nH]c(=O)c2ccc(N4CCN(CC(=O)N5CCC(CN)C5)CC4)cc23)c(C)c1 (centres unmarked) [Compound 137]				17.3 to 86.4	1.73 to 8.64
Cc1ccc(S(=O)(=O)c2nnn3c2[nH]c(=O)c2ccc(N4CCN(CC(=O)NC5CNC5)CC4)cc23)c(C)c1 [Compound 138]				18.2 to 90.8	1.82 to 9.08
